Data taken from ChEMBL document CHEMBL5120752, “Galangin 3-benzyl-5-methylether derivatives function as an adiponectin synthesis-promoting peroxisome proliferator-activated receptor γ partial agonist” (Bioorg Med Chem, 2022).
Activity calls are given as the source filed them. No cut-off for these calls is given here.

Columns and labels:
[1] = tested on: Mesenchymal stem cells; test: Upregulation of adiponectin mRNA expression in human BMMSC cells at 10 uM measured after 3 days by qRT-PCR analysis; type: functional, cell-based; conditions: time 3.0 day
[2] = tested on: Mesenchymal stem cells; test: Upregulation of PPARgamma mRNA expression in human BMMSC cells at 10 uM measured after 3 days by qRT-PCR analysis; type: functional, cell-based; conditions: time 3.0 day
[3] = tested on: Mesenchymal stem cells; test: Upregulation of FABP4 mRNA expression in human BMMSC cells at 10 uM measured after 3 days by qRT-PCR analysis; type: functional, cell-based; conditions: time 3.0 day
[4] = tested on: Mesenchymal stem cells; test: Induction of adiponectin synthesis in human differentiated BMMSC cells at 10 uM measured after 5 days in the presence of IDX induction medium by ELISA; type: functional, cell-based; conditions: time 5.0 day
[5] = tested on: Mesenchymal stem cells; test: Induction of adiponectin synthesis in human differentiated BMMSC cells assessed as lipid accumulation at 10 uM measured after 5 days in the presence of IDX induction medium by Oil red O staining based inverted phase contrast microscope analysis; type: functional, cell-based; conditions: time 5.0 day
[6] = tested on: Mesenchymal stem cells; test: Induction of adiponectin synthesis in human differentiated BMMSC cells assessed as fold increase in adiponectin level at 10 uM measured after 5 days in the presence of IDX induction medium by ELISA; type: functional; conditions: time 5 day
[7] = tested on: Mesenchymal stem cells; test: Induction of adiponectin synthesis in human differentiated BMMSC cells measured after 5 days in the presence of IDX induction medium by ELISA; type: functional, cell-based; conditions: 120 h
[8] = molecular target: T1, Peroxisome proliferator-activated receptor gamma (Homo sapiens, UniProt P37231); test: Binding affinity to PPARgamma (unknown origin) assessed as inhibition constant by Lanthascreen TR-FRET assay relative to control
T1 sequence (P37231 whole entry): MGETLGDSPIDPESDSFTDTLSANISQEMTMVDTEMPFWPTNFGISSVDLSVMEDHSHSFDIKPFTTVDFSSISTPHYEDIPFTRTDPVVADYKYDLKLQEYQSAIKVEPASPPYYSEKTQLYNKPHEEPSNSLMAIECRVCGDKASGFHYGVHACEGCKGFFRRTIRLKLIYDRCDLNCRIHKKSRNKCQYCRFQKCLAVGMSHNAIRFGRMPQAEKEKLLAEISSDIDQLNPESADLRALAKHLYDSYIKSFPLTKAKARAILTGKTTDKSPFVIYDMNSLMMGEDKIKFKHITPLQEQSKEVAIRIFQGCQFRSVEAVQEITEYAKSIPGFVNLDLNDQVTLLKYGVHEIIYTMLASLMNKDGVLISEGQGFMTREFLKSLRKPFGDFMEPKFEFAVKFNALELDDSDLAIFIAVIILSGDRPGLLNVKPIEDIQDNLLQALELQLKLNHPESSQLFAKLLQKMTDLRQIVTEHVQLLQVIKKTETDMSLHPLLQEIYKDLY

[9] = molecular target: Estrogen receptor beta (Homo sapiens) (UniProt Q92731); test: Binding affinity to ERbeta (unknown origin) at 10 uM by Lanthascreen TR-FRET assay relative to control
Sequence of Estrogen receptor beta (Homo sapiens) (Q92731 whole entry): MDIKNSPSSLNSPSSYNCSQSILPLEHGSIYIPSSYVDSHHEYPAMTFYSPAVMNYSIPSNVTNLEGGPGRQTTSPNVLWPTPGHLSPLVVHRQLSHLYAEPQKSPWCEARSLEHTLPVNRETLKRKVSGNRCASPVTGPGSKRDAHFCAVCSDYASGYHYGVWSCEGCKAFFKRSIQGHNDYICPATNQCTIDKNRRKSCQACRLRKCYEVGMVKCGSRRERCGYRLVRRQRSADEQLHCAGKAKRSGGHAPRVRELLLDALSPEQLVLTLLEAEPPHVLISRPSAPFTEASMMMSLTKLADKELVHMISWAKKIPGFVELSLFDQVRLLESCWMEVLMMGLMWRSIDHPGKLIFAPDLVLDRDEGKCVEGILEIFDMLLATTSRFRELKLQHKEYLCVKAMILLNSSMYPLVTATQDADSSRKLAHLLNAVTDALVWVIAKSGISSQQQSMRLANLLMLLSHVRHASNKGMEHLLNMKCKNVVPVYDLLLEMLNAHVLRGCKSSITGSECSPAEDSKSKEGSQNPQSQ

Compound	Activity [1]	Activity [2]	Activity [3]	Activity [4]	Activity [5]	fold change (FC) [6]	EC50 [7]	Ki [8]	Activity [9]
COc1cc(OC)c2c(=O)c(OCc3ccccc3)c(-c3ccccc3)oc2c1	Active	Active	Active	Active	Active	–	–	–	–
COc1cc(O)cc2oc(-c3ccccc3)c(OCc3ccccc3)c(=O)c12	Active	Active	Active	Active	Active	2.88	14.9 µM	–	–
COc1cc(OC(=O)c2ccccc2)cc2oc(-c3ccccc3)c(OCc3ccccc3)c(=O)c12	–	–	–	Active	–	2.76	–	–	–
COc1cc(OC(=O)c2ccccc2)cc2oc(-c3ccccc3)c(O)c(=O)c12	–	–	–	Active	–	–	–	–	–
O=c1c(O)c(-c2ccccc2)oc2cc(O)cc(O)c12 [GALANGIN]	Active	Active	Active	Active	Active	–	–	5.6 µM	79.4%
COc1cc(O)c2c(=O)c(OCc3ccccc3)c(-c3ccccc3)oc2c1	–	–	–	Active	–	–	–	–	–
